Measured values as given in patent US20040176422A1, “Heteroarylheteroalkylamine derivatives and their use as inhibitors of nitric oxide synthase” (priority 2001, published 2004).
Counter-ions that a name gives are not always drawn.

| Structure (SMILES) | melting point [°C] |
| --- | --- |
| COc1cc(S[C@H](CCN)c2ccno2)c(Cl)cn1 (as salt: salt) [Example 15, γ-[(5-Chloro-2-methoxy-4-pyridinyl)thio]-(γ^5R)-5-isoxazolepropanamine (E)-butenedioate] | 142 to 143 |
| Cc1ccc(C#N)c(S[C@H](CCN)c2ccno2)n1 [Example 6, 2-[[(1R)-3-Amino-1-(5-isoxazolyl)propyl]thio-6-methyl-3-pyridinecarbonitrile Ethanedioate] | 165 to 167 |
| N#Cc1ccc(C(F)(F)F)nc1O[C@H](CCN)c1ccon1.O=C(O)/C=C/C(=O)O [Example 11, 2-[[(1R)-3-Amino-1-(3-isoxazolyl)propyl]oxy]-6-(trifluoromethyl)-3-pyridinecarbonitrile (E)-butenedioate] | 160 to 161 |
| Cl.N#Cc1ccc(C(F)(F)F)nc1O[C@H](CCN)c1nccs1 [Example 12, 2-[[(1R)-3-Amino-1-(2-thiazolyl)propyl]oxy]-6-(trifluoromethyl)-3-pyridinecarbonitrile Hydrochloride] | 151 to 153 |
| N#Cc1cnc(N)cc1S[C@H](CCN)c1ccno1.O=C(O)/C=C/C(=O)O [Example 14, 6-Amino-4-[[(1R)-3-amino-1-(5-isoxazolyl)propyl]thio]-3-pyridinecarbonitrile (E)-butenedioate] | 160 to 163 |
| COc1cc(S[C@H](CCN)c2ccno2)c(C#N)cn1.O=C(O)/C=C/C(=O)O [Example 16, 4-[[(1R)-3-Amino-1-(5-isoxazolyl)propyl]thio]-6-methoxy-3-pyridinecarbonitrile (E)-butenedioate] | 152 to 153 |
| N#Cc1ccc(C(F)(F)F)nc1O[C@H](CCN)c1cc(Cl)no1.O=C(O)/C=C/C(=O)O [Example 18, 2-[[(1R)-3-Amino-1-(3-chloro-5-isoxazolyl)propyl]oxy]-6-(trifluoromethyl)-3-pyridinecarbonitrile (E)-butenedioate] | 151 to 152 |
| Cc1ccc(C#N)c(S[C@H](CCN)c2cc(Cl)no2)n1.O=C(O)/C=C/C(=O)O [Example 19, 2-[[(1R)-3-Amino-1-(3-chloro-5-isoxazolyl)propyl]thio]-6-methyl-3-pyridinecarbonitrile (E)-butenedioate] | 186 to 187 |
| N#Cc1ccc(C(F)(F)F)nc1OC(CCCN)c1ccno1.O=C(O)/C=C/C(=O)O (stereo not drawn) [Example 42, 2-[4-Amino-1-(5-isoxazolyl)butoxy]-6-(trifluoromethyl)-3-pyridinecarbonitrile (E)-butenedioate] | 155 to 157 |

Further lines, results first:

| melting point [°C] | Structure (SMILES) |
| --- | --- |
| 103 to 104 | Cc1ccc(C#N)c(SC(CCN)c2ccns2)n1.O=C(O)C(=O)O (stereo not drawn) [Example 21, 2-[[3-Amino-1-(5-isothiazolyl)propyl]thio]-6-methyl-3-pyridinecarbonitrile Ethanedioate] |
| 175 to 177 | Cc1ccc(C#N)c(OC(CCN)c2ccns2)n1.O=C(O)C(=O)O (stereo not drawn) [Example 22, 2-[3-Amino-1-(5-isothiazolyl)propoxy]-6-methyl-3-pyridinecarbonitrile Ethanedioate] |
| 163 to 165 | Cc1cc([C@@H](CCN)Oc2nc(C(F)(F)F)ccc2C#N)no1 [Example 24, 2-[[(1R)-3-Amino-1-(5-methyl-3-isoxazolyl)propyl]oxy]-6-(trifluoromethyl)-3-peridinecarbonitrile Ethanedioate] |
| 173 to 174 | COc1cc(O[C@H](CCN)c2ccon2)c(C#N)cn1.O=C(O)C(=O)O [Example 25, 4-[[(1R)-3-Amino-1-(3-isoxazolyl)propyl]oxy]-6-methoxy-3-pyridinecarbonitrile Ethanedioate] |
| 132 to 134 | Cc1ccc(C#N)c(SC(CCN)c2nocc2C)n1.O=C(O)C(=O)O (stereo not drawn) [Example 26, 2-[[3-Amino-1-(4-methyl-3-isoxazolyl)propyl]thio]-6-methyl-3-pyridinecarbonitrile Ethanedioate] |
| 180 to 181 | Cc1cc(SC(CCN)c2scnc2Cl)c(C#N)cn1.O=C(O)/C=C/C(=O)O (stereo not drawn) [Example 28, 4-[[3-Amino-1-(4-chloro-5-thiazolyl)propyl]thio]-6-methyl-3-pyridinecarbonitrile (E)-butenedioate] |
